Measured values reported in article PMC10763615, “Identification and engineering of potent cyclic peptides with selective or promiscuous binding through biochemical profiling and bioinformatic data analysis” (RSC Chemical Biology, 2023).
Read-outs that look alike come from different tables or passages of the source. Positions of bridges follow the written chain, without caps; N, C: chain ends. Residues, ends and D or L forms follow the SMILES beside them.

What was measured:
Format in all cases: binding
FGF-R3C ECD = target: T1, FGF-R3C ECD (Homo sapiens, UniProt P22607); experiment: biochemical; set-up: DNA constructs for the extracellular domain (ECD) of human FGF-; HPC4 (C); made in house; host or cells: HEK 293-6E
T1 sequence (P22607 23-375 limits assumed): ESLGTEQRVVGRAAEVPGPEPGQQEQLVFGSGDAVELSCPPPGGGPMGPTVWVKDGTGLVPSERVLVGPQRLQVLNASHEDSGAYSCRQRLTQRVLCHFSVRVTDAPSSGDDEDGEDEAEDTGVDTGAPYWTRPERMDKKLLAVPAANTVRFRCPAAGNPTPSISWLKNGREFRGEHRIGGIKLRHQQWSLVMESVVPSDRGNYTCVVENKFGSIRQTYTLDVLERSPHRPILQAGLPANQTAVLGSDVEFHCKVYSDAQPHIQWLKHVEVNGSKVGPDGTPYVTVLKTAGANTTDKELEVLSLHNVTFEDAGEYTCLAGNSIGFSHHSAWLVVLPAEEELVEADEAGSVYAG
How it was run: (§1)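 Biotinylated FGF-R ECD on streptavidin biosensors was dipped into ~1 μM crude peptide in PBS pH7.4 with 0.05% Tween-20 and 0.01% BSA for association, then into buffer for dissociation, and followed by BLI. Fitted KD values were adjusted for peptide concentration measured by UPLC-CAD.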

FGF-R1C ECD = target: T2, FGF-R1C ECD (Homo sapiens, UniProt P11362); experiment: biochemical; set-up: DNA constructs for the extracellular domain (ECD) of human FGF-; HPC4 (C); made in house; host or cells: HEK 293-6E
T2 sequence (P11362 22-376 limits assumed): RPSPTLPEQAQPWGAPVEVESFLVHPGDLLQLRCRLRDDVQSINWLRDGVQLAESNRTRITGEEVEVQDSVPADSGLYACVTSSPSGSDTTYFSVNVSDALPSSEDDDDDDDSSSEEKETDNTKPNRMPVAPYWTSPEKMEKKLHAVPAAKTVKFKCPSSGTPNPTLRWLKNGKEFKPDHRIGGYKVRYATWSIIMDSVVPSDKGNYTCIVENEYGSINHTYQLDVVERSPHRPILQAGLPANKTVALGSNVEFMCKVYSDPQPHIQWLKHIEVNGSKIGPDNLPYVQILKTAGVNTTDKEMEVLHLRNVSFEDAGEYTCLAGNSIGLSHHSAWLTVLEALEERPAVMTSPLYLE
How it was run: as §1

FGF-R4 ECD = target: T3, FGF-R4 ECD (Homo sapiens, UniProt P22455); experiment: single concentration BLI of crude peptides; details: read-out: KD (4)
T3 construct: DNA constructs for the extracellular domain (ECD) of human FGF-; HPC4 (C); made in house; host or cells: HEK 293-6E
T3 sequence (P22455 22-369 limits assumed): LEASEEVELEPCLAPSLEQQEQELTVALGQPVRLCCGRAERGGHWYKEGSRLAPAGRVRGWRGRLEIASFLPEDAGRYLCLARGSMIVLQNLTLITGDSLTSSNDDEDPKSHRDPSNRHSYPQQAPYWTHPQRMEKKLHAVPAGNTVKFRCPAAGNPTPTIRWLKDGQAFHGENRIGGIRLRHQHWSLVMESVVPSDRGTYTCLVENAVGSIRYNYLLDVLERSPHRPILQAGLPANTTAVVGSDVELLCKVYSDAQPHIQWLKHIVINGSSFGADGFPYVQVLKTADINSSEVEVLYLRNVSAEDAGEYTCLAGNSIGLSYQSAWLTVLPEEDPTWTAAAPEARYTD
How it was run: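 Streptavidin biosensors carrying biotinylated FGF receptor ECD were immersed in peptide (~1 μM for crude single-point runs, a concentration series for purified peptides) and then in peptide-free buffer. KD was obtained by fitting the BLI association and dissociation curves.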

[1] = crude NNK peptides, single concentration BLI (Table S3)
[2] = crude T18 selection 1 (1:1:1) peptides, single concentration BLI (Table S4)

Row | SMILES | Kd (FGF-R3C ECD) [µM] | Kd (FGF-R1C ECD) [µM] | Kd (FGF-R4 ECD; [1]) [nM] | Kd (FGF-R4 ECD; [2]) [nM]
1 | CC[C@H](C)[C@@H]1NC(=O)[C@@H](NC(=O)[C@H](CCSC)NC(C)=O)CSSC[C@@H](C(=O)NCC(=O)N[C@@H](CO)C(=O)NCC(=O)N[C@@H](CO)C(=O)N[C@@H](CC(=O)O)C(=O)N[C@@H](Cc2ccc(O)cc2)C(=O)N[C@@H](CCCCN)C(=O)N[C@@H](CC(=O)O)C(=O)N[C@@H](CC(=O)O)C(=O)N[C@@H](CC(=O)O)C(=O)N[C@@H](CC(=O)O)C(=O)N[C@@H](CCCCN)C(N)=O)NC(=O)[C@H](CCCNC(=N)N)NC(=O)CNC(=O)[C@H](CCCNC(=N)N)NC(=O)[C@H](CC(C)C)NC(=O)[C@H](C(C)C)NC(=O)[C@H](CCCCN)NC(=O)[C@H](Cc2ccc(O)cc2)NC(=O)[C@H](CC(C)C)NC(=O)[C@H](CC(C)C)NC1=O (Ac-MCILLYKVLRGRCGSGSDYKDDDDK-NH2; disulfide 2-13) | > 10 | > 10 | 128 | 
2 | CC[C@H](C)[C@@H]1NC(=O)[C@@H](NC(=O)[C@H](CCSC)NC(C)=O)CSSC[C@@H](C(=O)NCC(=O)N[C@@H](CO)C(=O)NCC(=O)N[C@@H](CO)C(=O)N[C@@H](CC(=O)O)C(=O)N[C@@H](Cc2ccc(O)cc2)C(=O)N[C@@H](CCCCN)C(=O)N[C@@H](CC(=O)O)C(=O)N[C@@H](CC(=O)O)C(=O)N[C@@H](CC(=O)O)C(=O)N[C@@H](CC(=O)O)C(=O)N[C@@H](CCCCN)C(N)=O)NC(=O)[C@H](Cc2c[nH]cn2)NC(=O)[C@H](CO)NC(=O)[C@H]([C@@H](C)CC)NC(=O)[C@H](CC(C)C)NC(=O)[C@H](Cc2ccc(O)cc2)NC(=O)[C@H](Cc2ccc(O)cc2)NC(=O)[C@H](Cc2ccccc2)NC(=O)[C@H](CC(C)C)NC(=O)[C@H](Cc2ccc(O)cc2)NC(=O)[C@H](CCCNC(=N)N)NC1=O (Ac-MCIRYLFYYLISHCGSGSDYKDDDDK-NH2; disulfide 2-14) | > 10 | > 10 |  | 2
3 | CC[C@H](C)[C@@H]1NC(=O)[C@@H](NC(=O)[C@H](CCSC)NC(C)=O)CSSC[C@@H](C(=O)NCC(=O)N[C@@H](CO)C(=O)NCC(=O)N[C@@H](CO)C(=O)N[C@@H](CC(=O)O)C(=O)N[C@@H](Cc2ccc(O)cc2)C(=O)N[C@@H](CCCCN)C(=O)N[C@@H](CC(=O)O)C(=O)N[C@@H](CC(=O)O)C(=O)N[C@@H](CC(=O)O)C(=O)N[C@@H](CC(=O)O)C(=O)N[C@@H](CCCCN)C(N)=O)NC(=O)[C@@H]2CCCN2C(=O)[C@H](CCCNC(=N)N)NC(=O)[C@H](Cc2c[nH]c3ccccc23)NC(=O)[C@H](CCC(=O)O)NC(=O)[C@H](CCC(=O)O)NC(=O)[C@H](Cc2c[nH]c3ccccc23)NC(=O)[C@H](CCCCN)NC(=O)[C@H](CC(N)=O)NC(=O)[C@H](CCCCN)NC(=O)[C@H](CCCNC(=N)N)NC(=O)[C@H]([C@@H](C)O)NC1=O (Ac-MCITRKNKWEEWRPCGSGSDYKDDDDK-NH2; disulfide 2-15) | > 10 | > 10 |  | > 10000
4 | CC[C@H](C)[C@@H]1NC(=O)[C@@H](NC(=O)[C@H](CCSC)NC(C)=O)CSSC[C@@H](C(=O)NCC(=O)N[C@@H](CO)C(=O)NCC(=O)N[C@@H](CO)C(=O)N[C@@H](CC(=O)O)C(=O)N[C@@H](Cc2ccc(O)cc2)C(=O)N[C@@H](CCCCN)C(=O)N[C@@H](CC(=O)O)C(=O)N[C@@H](CC(=O)O)C(=O)N[C@@H](CC(=O)O)C(=O)N[C@@H](CC(=O)O)C(=O)N[C@@H](CCCCN)C(N)=O)NC(=O)[C@H](C(C)C)NC(=O)[C@H](C)NC(=O)[C@H](Cc2c[nH]c3ccccc23)NC(=O)[C@H](Cc2ccccc2)NC(=O)[C@H](CC(=O)O)NC(=O)[C@H](CO)NC(=O)[C@H](CC(C)C)NC(=O)[C@H](CCCNC(=N)N)NC(=O)[C@H](Cc2ccc(O)cc2)NC1=O (Ac-MCIYRLSDFWAVCGSGSDYKDDDDK-NH2; disulfide 2-13) | 0.049 | 0.021 | 133 | 
5 | CC[C@H](C)[C@@H]1NC(=O)[C@H](CCC(=O)O)NC(=O)[C@H](Cc2ccc(O)cc2)NC(=O)[C@H](CCC(=O)O)NC(=O)[C@H](CCCCN)NC(=O)[C@@H](NC(=O)[C@H](CCSC)NC(C)=O)CSSC[C@@H](C(=O)NCC(=O)N[C@@H](CO)C(=O)NCC(=O)N[C@@H](CO)C(=O)N[C@@H](CC(=O)O)C(=O)N[C@@H](Cc2ccc(O)cc2)C(=O)N[C@@H](CCCCN)C(=O)N[C@@H](CC(=O)O)C(=O)N[C@@H](CC(=O)O)C(=O)N[C@@H](CC(=O)O)C(=O)N[C@@H](CC(=O)O)C(=O)N[C@@H](CCCCN)C(N)=O)NC(=O)[C@H](Cc2ccc(O)cc2)NC(=O)[C@H](CCC(N)=O)NC(=O)[C@H](CC(C)C)NC(=O)[C@H](CCCCN)NC(=O)[C@H](Cc2ccc(O)cc2)NC(=O)[C@H](Cc2c[nH]c3ccccc23)NC(=O)[C@H](CC(C)C)NC1=O (Ac-MCKEYEILWYKLQYCGSGSDYKDDDDK-NH2; disulfide 2-15) | > 10 | > 10 |  | 17
6 | CC[C@H](C)[C@@H]1NC(=O)[C@H](CCCCN)NC(=O)[C@@H](NC(=O)[C@H](CCSC)NC(C)=O)CSSC[C@@H](C(=O)NCC(=O)N[C@@H](CO)C(=O)NCC(=O)N[C@@H](CO)C(=O)N[C@@H](CC(=O)O)C(=O)N[C@@H](Cc2ccc(O)cc2)C(=O)N[C@@H](CCCCN)C(=O)N[C@@H](CC(=O)O)C(=O)N[C@@H](CC(=O)O)C(=O)N[C@@H](CC(=O)O)C(=O)N[C@@H](CC(=O)O)C(=O)N[C@@H](CCCCN)C(N)=O)NC(=O)[C@H](C(C)C)NC(=O)[C@H](Cc2c[nH]c3ccccc23)NC(=O)[C@H](Cc2c[nH]c3ccccc23)NC(=O)[C@H](Cc2ccccc2)NC(=O)[C@H](CCCCN)NC(=O)[C@H](Cc2c[nH]cn2)NC(=O)[C@H](CC(=O)O)NC(=O)[C@H](C(C)C)NC(=O)[C@H](Cc2ccc(O)cc2)NC(=O)[C@H](Cc2c[nH]c3ccccc23)NC1=O (Ac-MCKIWYVDHKFWWVCGSGSDYKDDDDK-NH2; disulfide 2-15) | > 10 | > 10 |  | 2
7 | CC[C@H](C)[C@@H]1NC(=O)[C@H](CCC(=O)O)NC(=O)[C@H](CCCNC(=N)N)NC(=O)[C@H](CCCCN)NC(=O)[C@@H](NC(=O)[C@H](CCSC)NC(C)=O)CSSC[C@@H](C(=O)NCC(=O)N[C@@H](CO)C(=O)NCC(=O)N[C@@H](CO)C(=O)N[C@@H](CC(=O)O)C(=O)N[C@@H](Cc2ccc(O)cc2)C(=O)N[C@@H](CCCCN)C(=O)N[C@@H](CC(=O)O)C(=O)N[C@@H](CC(=O)O)C(=O)N[C@@H](CC(=O)O)C(=O)N[C@@H](CC(=O)O)C(=O)N[C@@H](CCCCN)C(N)=O)NC(=O)[C@H](Cc2ccccc2)NC(=O)[C@H](C(C)C)NC(=O)[C@H](CC(C)C)NC(=O)[C@H](Cc2c[nH]c3ccccc23)NC(=O)[C@H](Cc2ccc(O)cc2)NC(=O)[C@H](CCCCN)NC1=O (Ac-MCKREIKYWLVFCGSGSDYKDDDDK-NH2; disulfide 2-13) | > 10 | > 10 |  | 8
8 | CC[C@H](C)[C@@H]1NC(=O)[C@H](CCCCN)NC(=O)[C@H](Cc2ccc(O)cc2)NC(=O)[C@H](Cc2ccc(O)cc2)NC(=O)[C@H]([C@@H](C)CC)NC(=O)[C@H](CC(C)C)NC(=O)[C@H](Cc2c[nH]cn2)NC(=O)[C@H](CCCNC(=N)N)NC(=O)[C@H](CCCCN)NC(=O)[C@@H](NC(=O)[C@H](CCSC)NC(C)=O)CSSC[C@@H](C(=O)NCC(=O)N[C@@H](CO)C(=O)NCC(=O)N[C@@H](CO)C(=O)N[C@@H](CC(=O)O)C(=O)N[C@@H](Cc2ccc(O)cc2)C(=O)N[C@@H](CCCCN)C(=O)N[C@@H](CC(=O)O)C(=O)N[C@@H](CC(=O)O)C(=O)N[C@@H](CC(=O)O)C(=O)N[C@@H](CC(=O)O)C(=O)N[C@@H](CCCCN)C(N)=O)NC(=O)[C@H](CCCNC(=N)N)NC(=O)[C@H](C)NC1=O (Ac-MCKRHLIYYKIARCGSGSDYKDDDDK-NH2; disulfide 2-14) | 1.54 | > 10 |  | 1
